From PMC12916490 (Molecular Psychiatry, 2025)

Legend:
h5-HT2A = h5-HT2A (Homo sapiens, UniProt P28223); assay: β-arrestin 2 recruitment (NanoBiT), h5-HT2A; format: cell-based; parameters: expressed in transfected cells; details: for Emax: read-out: β-arrestin 2 recruitment Emax h5-HT2A (95% CI)
Description: Activation of h5-HT2A, h5-HT2B, and h5-HT2C receptors was examined by measuring the accumulation of inositol monophosphate (IP1) as a marker for Gαq-mediated signaling. For h5-HT2A, additional assays measured β-arrestin 2 recruitment and arachidonic acid release, the latter serving as a marker of Gαi/o,12/13 activation. The methodology is described in detail in the Supplementary information.
The IC50 values from the radioligand binding assays were determined by nonlinear regression, using three independent concentration-response curves fitted to a one-site model. The Cheng-Prusoff equation was used to calculate Kᵢ values for the competing ligands. EC50 values were determined by applying nonlinear regression to concentration-response curves. Bias factors (β) were calculated based on the relative intrinsic activity approach. More detailed information can be found in the Supplementary information. Mean values for total number of HTR, change in body temperature from pre to post session (Δ°C), and total distance traveled (cm) for each drug dose were compared (p < 0.05) via Welch’s ANOVA with Dunnett’s T3 post test, comparing all doses to respective vehicle controls (0 mg/kg). Welch’s ANOVA with Dunnett’s T3 post test was also used to compare drug concentrations, but the data were compared to DOM in this case. Dose–response relationships for HTR and locomotor activities were plotted using bell-shaped curve fits, while temperature change data were plotted using four-parameter non-linear regression curve fits. The ascending phase of the HTR curve for each drug was used to determine ED50 potency values from four parameter non-linear regression fits. For combined DOM and DOAM administration, the plasma, brain tissue, and brain dialysate drug concentrations were compared using paired t-tests (p < 0.05). […]
the β-arrestin 2 molecule in the NanoBiT system) were seeded at a density of 50,000 cells per well in poly - D-lysine-coated 96-well plates in medium containing 10% dialyzed FBS. The plate was then incubated at […]
The following day, the cells were washed twice with 150 µL HBSS, and 100 µL HBSS was subsequently added to each well. Thereafter, 25 µL of substrate (1 :20 diluted in buffer) was added, and […]
agonist solutions was added, and the signal was monitored for 2 h. Drug dilutions in HBSS were made from 10 mM stock solutions in DMSO , yielding concentration ranges from 10 µM to 10 pM. All concentrations were run in duplicate and included the appropriate solvent controls. Efficacy was normalized to 5 -HT […]
3.2.3 Arachidonic acid release
Arachidonic acid release was assessed as a marker for Gαi/o,12/13 mediated signaling.
NIH/3T3 cells stably expressing the 5 -HT2A receptor were seeded at a density of 75,000 cells per well in a poly-D-lysine-coated 48-well plate. The following day, the cells were labeled with 300 μL [ 3H]arachidonic […]
Thereafter, the cells were washed 3 times for
(10 mM) of test substances were prepared in DMSO. The final dilution series of test substances dissolved […]
Thereafter, the plate was put on ice, and 400 μL incubation supernatant per well was transferred int o scintillation vials containing scintillation fluid (Ultimagold, Perkin Elmer, Schwerzenbach, Switzerland). The remaining supernatant was removed, and the cells were lysed with 1% sodium dodecyl sulfate lysis buffer. The obtained cell lysate was transferred into scintillation vials containing scintillation fluid. Radioactivity was measured on a liquid scintillation counter (Packard 1900 TR Tri-Carb Liquid Scintillation Counter; Packard Instrument Company). Efficacy was normalized to 5-HT activity.
3.2.4 Calculation of bias factors […]
using 5-HT as the reference agonist.
RApathway = EC50, i = EC50, ref×Emax,i […]

hNET = molecular target: T1, hNET (Homo sapiens, UniProt P23975); assay: Radioligand binding, hNET (N-methyl-[3H]nisoxetine)
T1 construct: expressed in transfected cells; host or cells: HEK 293 cells (membrane preparation)
T1 sequence (P23975 whole entry): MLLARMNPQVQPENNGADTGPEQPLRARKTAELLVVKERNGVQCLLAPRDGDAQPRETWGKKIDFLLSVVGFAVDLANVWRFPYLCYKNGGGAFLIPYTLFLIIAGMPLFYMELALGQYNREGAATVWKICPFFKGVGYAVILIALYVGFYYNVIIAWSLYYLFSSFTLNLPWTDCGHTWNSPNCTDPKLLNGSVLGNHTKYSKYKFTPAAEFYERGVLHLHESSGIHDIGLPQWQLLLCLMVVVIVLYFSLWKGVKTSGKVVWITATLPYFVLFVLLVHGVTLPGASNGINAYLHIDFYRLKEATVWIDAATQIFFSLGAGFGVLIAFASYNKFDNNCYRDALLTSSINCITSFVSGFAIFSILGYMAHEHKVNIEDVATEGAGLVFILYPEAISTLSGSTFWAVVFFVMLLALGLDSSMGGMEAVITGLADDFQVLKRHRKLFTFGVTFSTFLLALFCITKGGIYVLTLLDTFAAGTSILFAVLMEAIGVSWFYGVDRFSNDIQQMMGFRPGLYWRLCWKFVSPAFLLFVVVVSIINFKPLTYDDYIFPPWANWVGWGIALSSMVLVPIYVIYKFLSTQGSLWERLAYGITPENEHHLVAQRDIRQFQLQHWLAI
Description: Binding affinities at human monoamine receptors and transporters were assessed as previously reported. A detailed description of the methodology is provided in the Supplementary information.
The IC50 values from the radioligand binding assays were determined by nonlinear regression, using three independent concentration-response curves fitted to a one-site model. The Cheng-Prusoff equation was used to calculate Kᵢ values for the competing ligands. EC50 values were determined by applying nonlinear regression to concentration-response curves. Bias factors (β) were calculated based on the relative intrinsic activity approach. More detailed information can be found in the Supplementary information. Mean values for total number of HTR, change in body temperature from pre to post session (Δ°C), and total distance traveled (cm) for each drug dose were compared (p < 0.05) via Welch’s ANOVA with Dunnett’s T3 post test, comparing all doses to respective vehicle controls (0 mg/kg). Welch’s ANOVA with Dunnett’s T3 post test was also used to compare drug concentrations, but the data were compared to DOM in this case. Dose–response relationships for HTR and locomotor activities were plotted using bell-shaped curve fits, while temperature change data were plotted using four-parameter non-linear regression curve fits. The ascending phase of the HTR curve for each drug was used to determine ED50 potency values from four parameter non-linear regression fits. For combined DOM and DOAM administration, the plasma, brain tissue, and brain dialysate drug concentrations were compared using paired t-tests (p < 0.05).
3.1 Assessment of receptor and transporter binding affinities
Membrane preparations were prepared from cells transfected with the respective target. The membrane preparations were then incubated with selective radioligands at concentrations equal to the corresponding Kd and displacement of the ligand by the drugs was measured. The difference between total binding and nonspecific binding (determined in the presence of selective competitors) was defined as specific binding of the radioligand to the target receptor. The following transfected cell lines were used for the binding assays: HEK 293 cells (h5-HT1A, h5-HT2A, h5-HT2B, h5-HT2C, and hD2 receptors, hDAT, hNET, and hSERT), Chinese hamster ovary cells (hα 1A receptor), and Chinese hamster lung cells (hα 2A receptor).
3.1.1 Membrane preparations for receptor and transporter binding
For producing membrane preparations, transfected cells were harvested with trypsin/EDTA, washed with ice-cold phosphate buffered saline, and then pelleted by centrifugation (210 × g for 5 min at 4 °C). The pellets were frozen and stored at -80 °C until use. Frozen pellets were resuspended in 20 m L (receptor binding) or 400 m L (transporter binding) buffer (20 mM HEPES -NaOH, 10 mM EDTA, pH 7.4), and homogenized at 1,100 × g for 20 s (receptor binding) or 560 × g for 15 s (transporter binding); the homogenates were then centrifuged at 48,000 × g for 30 min at 4 °C. For receptor binding assays, the supernatants were discarded and the pellets were resuspended in 20 mL buffer (20 mM HEPES-NaOH, 0.1 mM EDTA, pH 7.4) and homogenized at 1 ,100 × g for 20 s. Centrifugation and discarding of the supernatant were repeated once, and the final pellet was then resuspended in buffer and homogenized.
3.1.2 Serotonin 5-HT1A and 5-HT2A receptor binding
Competitive binding at the h5-HT1A and h5-HT2A receptor was determined using 0.90 nM [ 3H]8-hydroxy-2-(di-n-propylamine)tetralin ([ 3H]8-OH-DPAT; h5-HT1A receptor agonist) and 0.40 nM [3H]ketanserin (h5-HT2 receptor antagonist) as radioligands. […]
binding of the radioligands was defined as difference between total binding (binding buffer alone) and nonspecific binding determined in the presence of 10 μM pindolol (h5-HT1A receptor antagonist) or 10 μM spiperone (h 5-HT2A receptor antagonist).

Chain of h5-HT2A (P28223 whole entry, looked up): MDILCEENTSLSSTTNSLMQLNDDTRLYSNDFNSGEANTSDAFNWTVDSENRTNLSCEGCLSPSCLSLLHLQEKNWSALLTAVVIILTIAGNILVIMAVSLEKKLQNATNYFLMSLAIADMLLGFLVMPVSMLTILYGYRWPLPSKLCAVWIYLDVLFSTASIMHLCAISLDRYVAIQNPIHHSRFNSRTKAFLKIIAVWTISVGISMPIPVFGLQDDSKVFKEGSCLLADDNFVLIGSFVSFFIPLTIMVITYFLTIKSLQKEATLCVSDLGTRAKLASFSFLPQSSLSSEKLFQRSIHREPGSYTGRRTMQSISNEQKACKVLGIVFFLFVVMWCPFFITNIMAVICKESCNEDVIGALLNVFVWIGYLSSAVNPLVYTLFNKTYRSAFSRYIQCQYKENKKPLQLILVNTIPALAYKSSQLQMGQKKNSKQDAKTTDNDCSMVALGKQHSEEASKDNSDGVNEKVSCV

SMILES | Agonist type in the β-arrestin 2 recruitment assay at the 5-HT2A receptor (h5-HT2A) | EC50 (h5-HT2A) | Emax (h5-HT2A) | Ki (hNET)
CCCc1cc(OC)c(CC(C)N)cc1OC.Cl (stereo not drawn) [DOPR, 4-propyl-2,5-dimethoxyamphetamine hydrochloride] | full agonists | 9.3 nM | 105% | > 8000 nM
CCCCCc1cc(OC)c(CC(C)N)cc1OC (stereo not drawn) [DOAM, 4-amyl-2,5-dimethoxyamphetamine] |  | 56 nM | 85% | > 8000 nM
COc1ccc(OC)c(CC(C)N)c1.Cl (stereo not drawn) [2,5-DMA, 2,5-Dimethoxyamphetamine hydrochloride] |  |  | 83% | > 8000 nM
COc1cc(CC(C)N)c(OC)cc1C (stereo not drawn) [DOM, 4-methyl-2,5-dimethoxyamphetamine] | full agonists | 55 nM | 97% | > 8000 nM
CCCCc1cc(OC)c(CC(C)N)cc1OC (stereo not drawn) [DOBU, 4-butyl-2,5-dimethoxyamphetamine] | full agonists | 24 nM | 96% | > 8000 nM
CCc1cc(OC)c(CC(C)N)cc1OC (stereo not drawn) [DOET, 4-ethyl-2,5-dimethoxyamphetamine] | full agonists | 12 nM | 99% | > 8000 nM
